Read-outs that look alike come from different tables or passages of the source.

The nature of series [1]: MDCK cell permeability, native cells. In kind it is in vitro ADME. The note with it: dog, Basolateral-to-apical. The method, then:
Samples were taken from the donor and receiver chambers at 120 minutes. Each determination was performed in duplicate. Co-dosed lucifer yellow flux was also measured for each monolayer to ensure cell monolayers remained intact during the incubation. All samples were assayed by LC-MS/MS.

A further series is described as follows: Plasma stability, mouse. In kind it is in vitro ADME, CD-1 mouse. The note with it: CD-1, pooled plasma, 37° C., read-out: Half-life in ex vivo blood plasma. From the text: (§1) Samples were quenched in methanol and analyzed by LC-MS/MS analysis.
A short description of series [2]: Pharmacokinetic study in dog. In kind it is in vivo, Beagle dog. The note with it: 1 mg/kg. The method, then:
IV doses were administered by a single intravenous infusion over 1 minute into the cephalic vein in a 10% ethanol and 90% saline vehicle. At designated time points (predose, 0.083, 0.25, 0.5, 1, 2, 4, 8 and 24 h p.d.), the animals were restrained manually, and approximately 0.5 mL blood per time point was collected from non-injected cephalic vein into pre-cold EDTA-K2 tubes. Blood samples were put on wet ice and centrifuged at 4° C. to obtain plasma within 15 minutes of sample collection. The levels of Compound A were quantitated in dog plasma by LC-MS/MS analysis. […] Typically, samples were injected onto an LC-MS/MS system using a Waters BEH Phenyl column. The aqueous mobile phase was water with 0.1% NH4OH (A), and the organic mobile phase was acetonitrile with 0.1% NH4OH (B). The gradient was as follows: 37% B for the first 0.2 min, increased to 44% B from 0.2 to 0.6 min, maintained at 44% B for 0.5 min, and decreased to 37% B within 0.05 min. The injection volume was 2 uL, and the total run time was 1.5 min with a flow rate of 0.6 mL/min. […] The ionization was conducted in the positive ion mode using the MRM transition [M+H]+m/z 563.5 parent ion to m/z 326.3 daughter ion, incorporating a turbo-ionspray interface. Eight to ten calibration standards were prepared in blank plasma of the relevant species providing a typical standard curve concentration range of 5-500 ng/mL. Pharmacokinetic parameters were calculated by noncompartmental methods using WinNonlin (version 5.3; Pharsight, St. Louis, Mo.). Parameters are presented as mean±S.D.

A short description of series [3]: Liver microsomes supplemented with UDPGA and alamethacin (glucuronidation). It is filed as in vitro ADME.
Series [4] in a line: Hepatocyte stability, rat. In kind it is in vitro ADME, Sprague-Dawley rat. The method, then: Human, Beagle dog, Sprague-Dawley rat, and CD-1 mouse cryopreserved hepatocytes were obtained from XenoTech and stored at −150° C. until use. The hepatocytes were thawed and prepared according to the vendor's instructions, pooled into Krebs Henseleit buffer (KHB, pH 7.4), and kept on ice prior to initiating an experiment. […] The reaction mixture was incubated in a shaking water bath at 37° C. Aliquots of the incubation solutions were sampled at 0, 15, 30, 60, and 120 minutes. The reaction was immediately terminated by the addition of three volumes of ice-cold acetonitrile containing 0.1% formic acid and internal standards. After centrifugation at 1640×g for 10 minutes, the supernatants were transferred into HPLC vials, and the test compound was analyzed by LC-MS/MS. Positive controls, testosterone (20 μM) and 7-hydroxycoumarin (100 μM), were performed in parallel to confirm the enzyme activities of the hepatocytes used.
Experimental half-lives were transformed to the corresponding intrinsic clearance values and subsequently scaled to predicted in vivo clearance values, using the well-stirred model as previously described (Houston, Biochemical Pharmacology 47(9): 1469-1479, 1994; Obach, Drug Metabolism and Disposition 27(11): 1350-1359, 1999), with appropriate species-specific scaling factors (Barter et al., Current Drug Metabolism 8(1): 33-45, 2007).

Series [5] can be described thus: Metabolite profiling in liver microsomes with NADPH and UDPGA, human. It is filed as in vitro ADME. The note with it: Compound A 10 μM, 20 min. The method, then: Compound A was incubated with liver microsomes of various species (mouse, rat, dog or human). […] For all liver microsomal incubations, samples were taken at 0 and 20 minutes. All samples were quenched by using acetonitrile/methanol solution and analyzed using an LC-MS/MS Q-Trap system (AB Sciex, Framingham, Mass.).
The corresponding product ion tandem mass spectra of Compound A and its metabolites were obtained by using enhanced product ion (EPI) scans during positive ion electrospray. The possible chemical structures of the metabolites were deduced based on their MS1 and MS2 spectra.

Another series in a line: Plasma stability, rat. In kind it is in vitro ADME. The note with it: Sprague Dawley, pooled plasma, 37° C., read-out: Half-life in ex vivo blood plasma.
Text: as §1

The nature of series [6]: Plasma protein binding by equilibrium dialysis, mouse. The note with it: male, CD-1, pH 7.4, read-out: Plasma free fraction. In kind it is in vitro ADME, CD-1 mouse. The protocol: Plasma protein binding was assessed by equilibrium dialysis, utilizing the HT-dialysis cell format with a cellulose semi permeable membrane (molecular weight cut off of 5000 Da). Plasma was warmed to 37° C. and adjusted to pH 7.4 before use. Male Sprague-Dawley rat, male Beagle dog, male CD-1 mouse and mixed sex human plasma was used for the studies. A 5 μM test compound solution was prepared in isotonic phosphate buffer and rat, dog, mouse and human plasma (final DMSO concentration of 0.5%). The plasma-containing solution was introduced to one side of the membrane, and the plasma-free on the other. Incubations were performed for 2-16 hours in duplicate in order to allow the compound to reach equilibrium. Haloperidol was included as the control compound for each species. At the end of the equilibration time the cells were emptied. Following protein precipitation, the samples were centrifuged and analyzed by LC-MS/MS. The samples from the protein containing compartment were quantified using calibration standards prepared in plasma and the protein free compartments were quantified using calibration standards prepared in dialysis buffer.

Where [7] appears, read: male, plasma, Beagle dog, IV bolus.

In series [1], `CC(C)N(C[C@H]1O[C@@H](n2cnc3c(N)ncnc32)[C@H](O)[C@@H]1O)[C@H]1C[C@@H](CCc2nc3cc(C(C)(C)C)ccc3[nH]2)C1` [Compound A, (2R,3R,4S,5R)-2-(6-amino-9H-purin-9-yl)-5-((((1r,3S)-3-(2-(5-(tert-butyl)-1H-benzo[d]imidazol-2-yl)ethyl)cyclobutyl)(isopropyl)amino)methyl)tetrahydrofuran-3,4-diol] had an apparent permeability from basolateral to apical (Papp B→A) at 120 min, 10 uM of 3 nm/s. Further, in “Plasma stability, mouse”, the half-life at 1 μM was greater than 2 h. In series [2] (Beagle dog, IV bolus), this molecule had a CL of 1.12 ± 0.102 L/h/kg. For the same molecule, the clearance in series [2] (male, beagle, dog, plasma, iv, Beagle dog, IV bolus) turned out to be 1.14 L/h/kg. The Vd in series [2] (male, beagle, dog, plasma, iv, Beagle dog, IV bolus, read-out: VDss) is 2.44 L/kg. For the same molecule, the Vd in series [2] (male, beagle, dog, plasma, iv, dog, read-out: Unbound VDss) amounted to 10.4 L/kg. In addition, in series [2] (setting [7]), the total exposure AUC(0-inf) amounted to 1600 ± 150 nM·h, the AUC(0-t) stood at 1550 ± 160 nM·h, the peak concentration (Cmax) came out at 5.06 ± 0.6 µM and the MRT was found to be 2.17 ± 0.89 h. Also, in series [2] (setting [7]), the Tmax was 4.98 min and the half-life was 13.6 h. The “turnover (glucuronidation)” value in series [3] is recorded as “no turnover was observed”. The “Scaled Hepatic CL from hepatocytes” value in series [4] came out at 0.42 L/h/kg. Moreover, the “Abundance based on UV spectra” value in series [5] came out at 59%. Also, the half-life at 1 μM in “Plasma stability, rat” was greater than 2 h. The fraction unbound at 5 μM in series [6] stood at 0.138.

(Values after patent US20160368943A1, “SUBSTITUTED PURINE COMPOUNDS” (EPIZYME, INC., priority 2013, published 2016).)
